According to patent US20040186022A1, “Enhanced herbicides” (priority 1999, published 2004):
Where “and” joins values, the source holds several entries; their conditions need not be identical. Identical values can stand only once.

Legend:
plants [1] = assay: Synergistic relationship between succinic acid and caprylic/capric acids C/C, herbicidal activity; format: in vivo
Source text: (§1) The herbicides were applied in the “spray to drip” amount or at a calibrated 20-60 gallons/acre. “Spray to drip” is an uncalibrated application of fluid to foliage, where sufficient spray volume is used to sufficiently saturate the foliage surface until excess fluid begins to drip from the foliage.

plants [2] = assay: Herbicidal activity: comparison of caprylic, pelargonic and an equimolar mixture of caprylic and pelargonic acids; format: in vivo; settings: for Injury ratings based on 2 independent evaluations, 40 G/acre: 40 G/acre: chickweed, lambsquarter and green foxtail; for Injury ratings based on 2 independent evaluations, 40 G/acre / Injury ratings based on 2 independent evaluations, 60 G/acre: redroot pigweed, each pot rated 1 to 5; for Injury ratings based on 2 independent evaluations, 60 G/acre: 60 G/acre: chickweed, lambsquarter, green foxtail, crabgrass and wheat; for Average rating per pot: rating 1 to 5, 5 = complete desiccation of all plants
Source text: The herbicides were applied in the “spray to drip” amount or at a calibrated 20-60 gallons/acre. “Spray to drip” is an uncalibrated application of fluid to foliage, where sufficient spray volume is used to sufficiently saturate the foliage surface until excess fluid begins to drip from the foliage. In general, about 5 to 200 gallons/acre, preferably 20-100 gallons/acre can be effective.

[3] = test system: navy dry beans (navy Vista); assay: Synergistic interactions of succinic acid and di-ammonium succinate with herbicidal compounds, navy dry beans; format: in vivo, dry bean (navy); settings: for Injury rating, average per plot: scale 1-5
Source text: as §1

[4] = test system: black beans (dry bean variety T39); assay: Synergistic interactions of succinic acid and di-ammonium succinate with other herbicidal compounds, dry beans (black); format: in vivo; settings: for Injury rating, average per plot: scale 1-5
Source text: as §1

Dry Beans = assay: Synergistic relationship between succinic or citric acid and caprylic acid, testing dry beans; format: in vivo; settings: 3 days after single foliar application, dry bean Vista; for Green Foliage, Overall Effect / Yellow Foliage, Overall Effect: 5 equals profound desiccation
Source text: as §1

soybeans [5] = assay: Synergistic relationships between succinic acid and caprylic acid at different application rates, testing soybeans; format: in vivo; settings: 2 days after a single foliar application, average of 2 sites, soybean Stine 2250; for Overall Effect: 5 equals profound desiccation
Source text: as §1

soybeans [6] = assay: Synergy comparisons of various organic acids with caprylic acid, testing soybeans; format: in vivo; settings: 3 days after a single foliar application, average of 2 sites, soybean Stine 2250; for Overall Effect: 5 equals profound desiccation
Source text: as §1

[7] = Measurement of pH values for test desiccants (Example 55); format: physicochemical
[8] = test system: 60 G/a: velvetleaf, black nightshade, redroot pigweed, foxtail and snapbeans; spray to drip: black nightshade, velvetleaf, foxtail and snapbeans; assay: Efficacy of 1.5% succinic acid with oleic, caprylic or pelargonic acid in an emulsification system (Emsorb 6900); format: in vivo; set-up: Injury rating, total score for 2 evaluation, Spray to drip / Injury rating, total score for 2 evaluation, Total Rating: scale not given here
Source text: as §1

[9] = test system: 40 G/a: crab grass, pigweed, chick weed and foxtail; 60 G/a: pigweed, Kentucky bluegrass, foxtail, crab grass and barnyard grass; spray to drip: Kentucky …; assay: Herbicidal activities: synergy between succinic acid and pelargonic acid; format: in vivo; set-up: Total injury ratings, 60 G/a / Total injury ratings, Spray to drip / Total injury ratings, Total: scale not given here
Source text: as §1

[10] = test system: chickweed, redtop, velvetleaf, crabgrass and green foxtail; assay: Enhancement of herbicidal activity of caprylic/capric acids (c/c) using selected compounds at equimolar amounts; format: in vivo; set-up: Relative injury ratings, Day #4 / Relative injury ratings, Day #5: scale not given here; settings: for Relative injury ratings, Day #2: Day 2 after treatment, 40 G/acre, 8 pots, rating 1-5 per pot, […] Emsorb 6900, […] mineral oil; for Relative injury ratings, Day #4: Day 4 after treatment; for Relative injury ratings, Day #5: Day 5 after treatment; for Average rating per pot: scale 1-5
Source text: as §1

[11] = test system: snapbean and potato plants; assay: Enhancement of Scythe's herbicidal activity by selected compounds; format: in vivo; set-up: Totals, all evaluations, Beans / Totals, all evaluations, Potatoes / Totals, all evaluations, All / evaluation, 2 days, beans / evaluation, 2 days, potatoes / evaluation, 11 days, beans / evaluation, 11 days, potatoes / evaluation, 15 days, beans / evaluation, 15 days, potatoes: scale not given here
Source text: as §1

young potato plants = assay: Effects of desiccants and desiccant combinations with other compounds on young potato plants; format: in vivo; set-up: All evaluations (total score): scale not given here
Source text: as §1

[12] = Day 1, one application at 40 G/acre, treatments 1-4, 9-11 in Emsorb 6900/mineral oil/Hasten, 5-8, 12-14 in 0.3% Sylgard 309
[13] = Day 2, one application at 40 G/acre, treatments 1-4, 9-11 in Emsorb 6900/mineral oil/Hasten, 5-8, 12-14 in 0.3% Sylgard 309

SMILES: O=C([O-])c1ccccc1O.[Na+] [0.5% sodium salicylate]
- Injury ratings, Total (plants [1]; 40 G/a + 60 G/a): 1.5
- Injury ratings based on 2 independent evaluations, 40 G/a (plants [1]; 40 G/acre: Canadian thistle, velvet leaf, Johnson grass and giant foxtail, each pot rated 1 to 5): 1
- Injury ratings based on 2 independent evaluations, 60 G/a (plants [1]; 60 G/acre: velvetleaf, Johnson grass and giant foxtail, each pot rated 1 to 5): 0.5
- Average rating per pot (plants [1]; rating 1 to 5, 5 = complete desiccation of all plants): 0.04

SMILES: CCCCCCCCC(=O)O [4.5% pelargonic]
- Injury ratings based on 2 independent evaluations, 40 G/acre (plants [2]): 45.1
- Injury ratings based on 2 independent evaluations, 60 G/acre (plants [2]): 53.9
- Average rating per pot (plants [2]): 4.51

SMILES: O=C([O-])c1ccccc1O.[Na+] [3% sodium salicylate, sodium salicylate]
- Injury rating, average per plot [3, 12]: 3.8
- Injury rating, average per plot ([3]; Day 2): 4.13
- Injury rating, average per plot ([3]; Day 3): 4.57
- Injury rating, average per plot ([3]; Day 4): 4.5
- % desiccation (Day 12), foliage [3]: 92%
- % desiccation (Day 12), pods [3]: 90%
- % desiccation (Day 12), vines [3]: 70%
- Injury rating, average per plot ([3]; Day 12): 4.7
- Injury rating, average per plot [4, 13]: 4
- % desiccation (Day 12), foliage [4]: 95%
- % desiccation (Day 12), pods [4]: 90%
- % desiccation (Day 12), vines [4]: 90%
- Injury rating, average per plot ([4]; Day 12): 4.78

SMILES: O=C([O-])c1ccccc1O.[Na+] [Na Salicylate (0.5%)]
- Green Foliage, Foliage Affected (%) (Dry Beans): 5-10%
- Yellow Foliage, Foliage Affected (%) (Dry Beans): 30%
- Green Foliage, Overall Effect (Dry Beans): 2
- Yellow Foliage, Overall Effect (Dry Beans): 1

SMILES: CCCCCCCC(=O)O [Caprylic Acid (0.5%)]
- Green Foliage, Foliage Affected (%) (Dry Beans): 10-15%
- Yellow Foliage, Foliage Affected (%) (Dry Beans): 70%
- Green Foliage, Overall Effect (Dry Beans): 2.5
- Yellow Foliage, Overall Effect (Dry Beans): 2
- Foliage Affected (%) (soybeans [5]): 9%
- Overall Effect (soybeans [5]): 2.25
- Foliage Affected (%) (soybeans [6]): 5%
- Overall Effect (soybeans [6]): 1.5
- pH Value [7]: 3.55 and 3.30

SMILES: C[C@H](O)C(=O)O [L-Lactic Acid (0.5%)]
- Foliage Affected (%) (soybeans [6]): 0%
- Overall Effect (soybeans [6]): 0
- pH Value [7]: 1.93

SMILES: CCCCCCCC/C=C\CCCCCCCC(=O)O [3% oleic, oleic acid]
- Injury rating, total score for 2 evaluation, Total Rating ([8]; 60 G/a plus spray to drip): 33.6
- Injury rating, total score for 2 evaluation, 60 G/a ([8]; 60 G/a, rating 1-5 per pot, 1% Emsorb, 0.3% Hasten): 24.2
- Average rating per pot ([8]; scale 1-5): 1.2
- Injury rating, total score for 2 evaluation, Spray to drip ([8]; spray to drip): 9.4

SMILES: O=C(O)CC(O)(CC(=O)O)C(=O)O [Citric Acid (0.5%)]
- Green Foliage, Foliage Affected (%) (Dry Beans): 0%
- Yellow Foliage, Foliage Affected (%) (Dry Beans): 0%
- Green Foliage, Overall Effect (Dry Beans): 0
- Yellow Foliage, Overall Effect (Dry Beans): 0
- pH Value [7]: 1.64

SMILES: O=C(O)CC(O)C(=O)O [L-Malic Acid (0.5%)]
- Foliage Affected (%) (soybeans [6]): 0%
- Overall Effect (soybeans [6]): 0
- pH Value [7]: 1.69

SMILES: CCCCCCCCC(=O)O [4% pelargonic acid, pelargonic acid]
- Total injury ratings, Total ([9]; 40 G/a, 60 G/a and spray to drip): 153.4
- Total injury ratings, 40 G/a ([9]; 40 G/a, 9 pots/treatment, rating 1-5 per pot, 1.125% Emsorb 6900): 41.6
- Total injury ratings, 60 G/a ([9]; 60 G/a, 10 pots/treatment): 45.6
- Total injury ratings, Spray to drip ([9]; spray to drip, 7 pots/treatment): 66.2

SMILES: N.N.O=C(O)C(O)C(O)C(=O)O (centres unmarked) [ammonium tartrate (1.42%), ammonium tartrate]
- Relative injury ratings, Day #2 [10]: 0
- Relative injury ratings, Day #4 [10]: 0
- Relative injury ratings, Day #5 [10]: 0
- Average rating per pot [10]: 0

SMILES: C[C@H](O)C(=O)O [L-Lactic Acid (1.0%)]
- Foliage Affected (%) (soybeans [5]): 1.25%
- Overall Effect (soybeans [5]): 0.5

SMILES: O=C([O-])c1ccccc1O.[Na+] [2% NaSalicylate]
- Totals, all evaluations, All ([11]; beans + potatoes): 7.5
- evaluation, 2 days, potatoes ([11]; potato, 2 days after application, 40 gallons/acre): 1
- evaluation, 11 days, potatoes ([11]; potato, 11 days after application, 40 gallons/acre): 1
- evaluation, 15 days, potatoes ([11]; potato, 15 days after application, 40 gallons/acre): 1
- evaluation, […], potatoes ([11]; potato, […] after application, 40 gallons/acre, 6 = complete desiccation): 0
- Totals, all evaluations, Potatoes ([11]; potato, total of 4 evaluation times): 3
- evaluation, 2 days, beans ([11]; snapbean, 2 days after application, 40 gallons/acre): 1
- evaluation, 11 days, beans ([11]; snapbean, 11 days after application, 40 gallons/acre): 1.5
- evaluation, 15 days, beans ([11]; snapbean, 15 days after application, 40 gallons/acre): 1
- evaluation, […], beans ([11]; snapbean, […] after application, 40 gallons/acre, 6 = complete desiccation): 1
- Totals, all evaluations, Beans ([11]; snapbean, total of 4 evaluation times): 4.5

SMILES: N.N.O=C(O)CCC(=O)O [di-ammonium succinate (1.26%), di-ammonium succinate]
- Relative injury ratings, Day #2 [10]: 0
- Relative injury ratings, Day #4 [10]: 0
- Relative injury ratings, Day #5 [10]: 0
- Average rating per pot [10]: 0

SMILES: O=C(O)CC(O)(CC(=O)O)C(=O)O [CitricAcid (0.5%)]
- Foliage Affected (%) (soybeans [6]): 0%
- Overall Effect (soybeans [6]): 0

SMILES: CCCCCCCC(=O)O [1% caprylic]
- Injury ratings of treated plants, day 1 (young potato plants; 1 day after application, 6 = complete desiccation): 2
- Injury ratings of treated plants, day 3 (young potato plants; 3 days after application, 6 = complete desiccation): 3
- Injury ratings of treated plants, day 6 (young potato plants; 6 days after application, 6 = complete desiccation): 2
- Injury ratings of treated plants, day 17 (young potato plants; 17 days after application, 6 = complete desiccation): 2.5
- Injury ratings of treated plants, day 22 (young potato plants; 22 days after application, 6 = complete desiccation): 3
- Injury ratings of treated plants, day 27 (young potato plants; 27 days after application, 6 = complete desiccation): 3
- Injury ratings of treated plants, […] (young potato plants; […] after application, 6 = complete desiccation): 2
- All evaluations (total score) (young potato plants; total of all evaluation times): 17.5

SMILES: O=C(O)CCC(=O)O [Succinic Acid (0.5%)]
- Green Foliage, Foliage Affected (%) (Dry Beans): 0%
- Yellow Foliage, Foliage Affected (%) (Dry Beans): 0%
- Green Foliage, Overall Effect (Dry Beans): 0
- Yellow Foliage, Overall Effect (Dry Beans): 0
- Foliage Affected (%) (soybeans [6]): 0%
- Overall Effect (soybeans [6]): 0
- pH Value [7]: 1.94

SMILES: N.N.O=S(=O)(O)O [ammonium sulfate (1.12%), ammonium sulfate]
- Relative injury ratings, Day #2 [10]: 0
- Relative injury ratings, Day #4 [10]: 0
- Relative injury ratings, Day #5 [10]: 0
- Average rating per pot [10]: 0

SMILES: CCCCCCCC(=O)O [Caprylic Acid (0.2%)]
- Foliage Affected (%) (soybeans [5]): 1.25%
- Overall Effect (soybeans [5]): 0.5

SMILES: CCCCCCCCC(=O)O [3.375% pelargonic]
- Injury ratings based on 2 independent evaluations, 40 G/acre (plants [2]): 43
- Injury ratings based on 2 independent evaluations, 60 G/acre (plants [2]): 53.6
- Average rating per pot (plants [2]): 4.41

SMILES: N.N.O=C(O)CCC(=O)O [2.52% di-ammonium succinate, di-ammonium succinate]
- Injury rating, average per plot [3, 12]: 0
- Injury rating, average per plot ([3]; Day 2): 0
- Injury rating, average per plot ([3]; Day 3): 0
- Injury rating, average per plot ([3]; Day 4): 0
- % desiccation (Day 12), foliage [3]: 0%
- % desiccation (Day 12), pods [3]: 0%
- % desiccation (Day 12), vines [3]: 0%
- Injury rating, average per plot ([3]; Day 12): 0
- Injury rating, average per plot [4, 13]: 0
- % desiccation (Day 12), foliage [4]: 0%
- % desiccation (Day 12), pods [4]: 0%
- % desiccation (Day 12), vines [4]: 0%
- Injury rating, average per plot ([4]; Day 12): 0

SMILES: O=C([O-])c1ccccc1O.[Na+] [Na Salicylate (2%)]
- Green Foliage, Foliage Affected (%) (Dry Beans): 90%
- Yellow Foliage, Foliage Affected (%) (Dry Beans): >90%
- Green Foliage, Overall Effect (Dry Beans): 5
- Yellow Foliage, Overall Effect (Dry Beans): 5
